What all share (type): cell-based
In test [1] the target is T1, Potassium channel subfamily K member 2 (Homo sapiens) (UniProt O95069).
T1 sequence (whole entry): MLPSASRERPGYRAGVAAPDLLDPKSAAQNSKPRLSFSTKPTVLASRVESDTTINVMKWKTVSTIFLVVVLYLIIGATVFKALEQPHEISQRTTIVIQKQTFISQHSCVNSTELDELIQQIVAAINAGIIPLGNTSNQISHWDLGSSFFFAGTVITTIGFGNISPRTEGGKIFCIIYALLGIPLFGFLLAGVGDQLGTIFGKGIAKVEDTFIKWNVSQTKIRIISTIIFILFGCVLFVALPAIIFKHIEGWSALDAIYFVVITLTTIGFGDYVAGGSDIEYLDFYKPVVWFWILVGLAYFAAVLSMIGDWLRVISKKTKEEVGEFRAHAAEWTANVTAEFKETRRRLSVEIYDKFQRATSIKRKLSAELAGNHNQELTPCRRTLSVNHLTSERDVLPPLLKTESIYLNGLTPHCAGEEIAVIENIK
Briefly: Inhibition of human TREK1 in open state expressed in CHO cells in presence of 10 uM TREK1 activator arachidonic acid by whole-cell patch-clamp electrophysiological method. A general note: In patch-clamp work, channel activity is measured electrically.

The target of test [2] is T1, Potassium channel subfamily K member 2 (Homo sapiens). The experiment in a line: Inhibition of human TREK1 R207A mutant at intermediate transition state expressed in CHO cells by whole-cell patch-clamp electrophysiological method.
The target of test [3] is T2, Potassium channel subfamily K member 4 (Homo sapiens) (UniProt Q9NYG8).
T2 sequence (whole entry): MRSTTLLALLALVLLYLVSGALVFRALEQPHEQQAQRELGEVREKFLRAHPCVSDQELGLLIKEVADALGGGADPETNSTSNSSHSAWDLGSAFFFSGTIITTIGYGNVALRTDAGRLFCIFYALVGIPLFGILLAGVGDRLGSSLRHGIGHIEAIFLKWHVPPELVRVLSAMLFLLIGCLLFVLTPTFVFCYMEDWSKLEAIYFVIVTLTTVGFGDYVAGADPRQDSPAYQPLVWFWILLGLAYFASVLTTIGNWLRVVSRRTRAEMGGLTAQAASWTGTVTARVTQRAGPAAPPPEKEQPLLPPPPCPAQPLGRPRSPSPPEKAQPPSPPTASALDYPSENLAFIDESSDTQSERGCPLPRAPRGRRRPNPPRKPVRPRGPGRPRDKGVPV
Briefly: Inhibition of human TRAAK at intermediate transition state expressed in CHO cells by whole-cell patch-clamp electrophysiological method.

Test [4] has as its target T3, Potassium channel subfamily K member 10 (Homo sapiens) (UniProt P57789).
T3 sequence (whole entry): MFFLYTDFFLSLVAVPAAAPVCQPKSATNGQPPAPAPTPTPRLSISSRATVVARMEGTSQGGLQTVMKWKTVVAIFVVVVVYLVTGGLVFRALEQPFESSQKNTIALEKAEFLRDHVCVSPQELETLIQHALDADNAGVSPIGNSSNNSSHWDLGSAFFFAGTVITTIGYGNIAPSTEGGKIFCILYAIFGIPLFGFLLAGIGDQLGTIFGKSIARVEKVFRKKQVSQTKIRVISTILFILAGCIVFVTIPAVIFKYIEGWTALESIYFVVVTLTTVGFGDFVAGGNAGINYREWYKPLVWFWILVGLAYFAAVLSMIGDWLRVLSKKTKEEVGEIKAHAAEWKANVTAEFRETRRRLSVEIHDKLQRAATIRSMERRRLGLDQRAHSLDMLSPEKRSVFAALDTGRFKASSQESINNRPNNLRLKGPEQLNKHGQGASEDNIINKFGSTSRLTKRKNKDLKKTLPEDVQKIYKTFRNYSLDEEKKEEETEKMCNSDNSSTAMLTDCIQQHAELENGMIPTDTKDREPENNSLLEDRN
Briefly: Inhibition of human TREK2 at intermediate transition state expressed in CHO cells by whole-cell patch-clamp electrophysiological method.

Test [5] addresses T1, Potassium channel subfamily K member 2 (Homo sapiens). Briefly: Inhibition of human TREK1 D294A mutant at intermediate transition state expressed in CHO cells by whole-cell patch-clamp electrophysiological method.
For test [6] the target is unchanged. The experiment in a line: Inhibition of human TREK1 S290A mutant at intermediate transition state expressed in CHO cells by whole-cell patch-clamp electrophysiological method.
Test [7] has the same target. Briefly: Inhibition of human TREK1 V288A mutant at intermediate transition state expressed in CHO cells by whole-cell patch-clamp electrophysiological method.
Test [8] has the same target. Briefly: Inhibition of human TREK1 W295A mutant at intermediate transition state expressed in CHO cells by whole-cell patch-clamp electrophysiological method.
The target is the same in test [9]. The experiment in a line: Inhibition of human TREK1 M291A mutant at intermediate transition state expressed in CHO cells by whole-cell patch-clamp electrophysiological method.
The target is the same in test [10]. Briefly: Inhibition of human TREK1 T211A mutant at intermediate transition state expressed in CHO cells by whole-cell patch-clamp electrophysiological method.
Test [11] shares this target. Briefly: Inhibition of human TREK1 at intermediate transition state expressed in CHO cells assessed as decrease in probability of TREK1 channel being in open state by single-channel recordings based by inside-out patch method.
Test [12] has the same target. The experiment in a line: Effect on channel conductance of human TREK1 expressed in CHO cells by single-channel recordings based by inside-out patch method.
Test [13] has the same target. Briefly: (§1) Inhibition of human TREK1 at intermediate transition state expressed in CHO cells by whole-cell patch-clamp electrophysiological method.
The target in test [14] is T4, Potassium channel subfamily K member 2 (Homo sapiens, UniProt O95069).
T4 sequence (O95069 whole entry): T1 sequence (whole entry)
The description is as §1.

Calls of active or inactive are those of the source. No cut-off for these calls is given here.

`O=C(CSc1ccc2ccccc2n1)NNC(=O)c1ccc(Cl)cc1`: the inhibition result in [1], in test [3], in test [5], in [8], in [9] and in [10] was “inactive” throughout. For the same compound, the inhibition result in [2], in test [4], in test [6], in [7] and in test [11] was “Active” each time. Further, the outcome in test [12] was inactive. In addition, the inhibition entry in test [13] was “Dose-dependent effect”. The IC50 in [14] was 2990 nM.

`COc1ccc2nc(SCC(=O)NNC(=O)c3ccc(Cl)cc3)ccc2c1`: the inhibition entry in test [5] and in [13] was “Active” each time. Moreover, the inhibition entry in test [6] is “inactive”.

With `O=C(CSc1ccc2cc(F)ccc2n1)NNC(=O)c1ccc(Cl)cc1`, the inhibition result in test [5] was “inactive”. Further, the inhibition result in test [6] and in test [13] was “Active” each time.

For `CNCCC(Oc1ccc(C(F)(F)F)cc1)c1ccccc1` (stereo unspecified), the inhibition entry in test [2] was “inactive”.

One may read the IC50 as the concentration needed to halve the response being measured. Read a low IC50 as higher potency.

For the origin of these results see ChEMBL document CHEMBL4665784, “Discovery of an Inhibitor for the TREK-1 Channel Targeting an Intermediate Transition State of Channel Gating” (J Med Chem, 2020).
